Patent US6914049B2, “IGF-binding protein-derived peptide or small molecule” (Bioexpertise, LLC, priority 2001, dated 2005)

Tests used:
[1] = system: HEK293 cells; assay: Caspase-3 apoptosis assay on nutritionally stressed HEK293 cells (Examples 1-2); format: cell-based, human; conditions: FIG. 4A/4B
Experimental: Human embryonal kidney 293 (HEK293) cells were grown in Dulbecco's Modified Eagle Medium (D-MEM) supplemented with fetal calf serum at 2%, 4%, 6%, or 8%. When the cells reached 80-85% confluency (cell titer approximately 2.1×10^6 cells per plate), 5 μg of IGFBP-3 or buffer control was added to each plate. The cells were incubated at 37° C. overnight. The next day the medium was removed and the cells were rinsed with trypsin-EDTA (0.25% trypsin, 1 mM EDTA) plus 1× phosphate buffered saline. The cells were centrifuged and the supernatant was removed. ApoAlert caspase-3 assay kit from Clontech Inc (Palo Alto, Calif.) was used to measure apoptosis. The cells were resuspended in 50 μl of chilled cell lysis buffer and incubated on ice for 10 minutes. The resulting cell, lysates were centrifuged at 14000 rpm in a Beckman microcentrifuge for 3 minutes at 4 C. The supernatant was transferred to new tubes and 50 μl of 2× reaction buffer/DTT plus 5 μl of 1 mM caspase-3 substrate was added to each tube. After incubating at 37 C. for 1 hour in a water bath, the samples were read at 405 nm in a microplate reader.
Peptides derived from IGFBP-3 were tested for pro-apoptotic activity essentially as described in Example 1.
The peptides tested are described in Table 1 (peptides marked with an asterisk include a hexahistidine tag).

[2] = IMAC of IGFBP-3 on Ni++ and Zn++ resins; format: binding
Experimental: Panels a and b (FIGS. 5A and 5B) show SDS-PAGE analysis of samples from Ni^++ and Zn^++ IMAC, respectively. FT indicates column flowthrough; W indicates wash; 50 indicates 50 mM imidazole wash; 60 indicates 60 mM imidazole wash; E indicates 1 M imidazole elution buffer; S indicates 1 M EDTA stripping buffer.
This previously unknown property of IGFBP-3 is intriguing and has a number of practical implications among which the ability to capture products using immobilized metal affinity (IMAC) resins leads to a number of potential applications in therapeutic, high-throughput discovery, and other research arenas.

[3] = Binding of IGFBP-3 to IMAC (NTA) resin charged with metal; conditions: approx. 1 mg loaded
Experimental: (§1) Binding of IGFBP-3 to immobilized metal affinity chromatography (IMAC) resin charged with various metals was measured. Approximately 1 mg of IGFBP-3 was loaded onto each column (NTA resin, Sigma Chemical Co., St. Louis, Mo.). The “percentage bound” was calculated by measuring OD280 of load, flow-through, wash and eluate at 60 mM imidazole. Typical recoveries were 85-95%.

[4] = Binding of IGFBP-3 to IMAC (NTA) resin without metal; conditions: metal none; approx. 1 mg loaded
Experimental: as §1

[5] = system: HEK293 cells; assay: Co-apoptotic activity of IGFBP-3 and paclitaxel, caspase-3; format: cell-based, human; conditions: 200 ng/ml antibody, 30 minutes pretreatment; FIG. 8B
Experimental: Co-aptotic activity of IGFBP-3 in combination with paclitaxel was measured in the HEK293 assay described in Example 1. HEK293 cells were grown in DMEM plus 8% FCS, then incubated in 0.3 ng/ml of paclitaxel (TAXOL®), 50 ng/ml of IGFBP-3, or a combination of the two. Some cultures were pretreated for 30 minutes with 200 ng/ml of anti-beta-1-integrin antibody (Pharmingen). Caspase-3 was assayed using the ApoAlert caspase-3 kit from Clontech Inc.

[6] = system: MDA-MB-231 cells; assay: Co-apoptotic activity of IGFBP-3 with cisplatin; format: cell-based; conditions: MDA-MB-231 cells and cisplatin; FIG. 8C
[7] = system: HEK 293 cells; assay: Co-apoptotic activity of MBD peptides and paclitaxel, caspase-3; format: cell-based, human; conditions: normalized to MBD2 = 100 on a molar basis; peptide 50 ng/ml, 0.3 ng/ml paclitaxel, 8 hours
Experimental: Peptides (50 ng/ml) were added to 80% confluent HEK 293 cells grown in DMEM supplemented with 0.3 ng/ml paclitaxel concurrent with peptide. Caspase-3 activity was measured in cell extracts 8 hours post-addition.
(§2) Apoptotic activity is expressed in arbitrary caspase-3 units normalized to MBD2 on a molar basis (MBD2 activity was defined as 100 units (avg. of 3 experiments); “nd” indicates “not done”; “ps” indicates phosphoserine. Metal-binding is expressed as a percentage of loaded peptide bound to a Ni-NTA resin; approximately 1-1.5 mg of peptide were loaded on the column. Cell uptake was determined using genetic fusions to GFP as described in Example 9.

[8] = Metal-binding of peptides to Ni-NTA resin; conditions: percentage of loaded peptide bound to Ni-NTA resin; 1-1.5 mg loaded
Experimental: as §2

[9] = system: HEK293 cells; assay: Co-apoptotic activity with paclitaxel in presence of plasma proteins; format: cell-based, human; conditions: 50 ng/ml, 0.3 ng/ml paclitaxel, eight hours
Experimental: Co-apoptotic activity of MBD peptides or IGFBP-3 with paclitaxel was tested in the presence or absence of two plasma proteins; fibronectin and fibrinogen. MBD peptides or IGFBP-3, (50 ng/ml), 0.3 ng/ml paclitaxel, and plasma proteins (200 ng/ml) were added to 80% confluent HEK293 cells grown in DMEM essentially as described in Example 8. Caspase-3 was measured after an eight hour incubation.
Apoptotic activity was calculated in arbitrary caspase-3 units normalized to MBD2 (MBD2 activity was defined as 100 units) Results are summarized in Table 4 (average of 3 experiments).

[10] = system: MA-16C mammary adenocarcinoma tumors; assay: MA-16C mammary adenocarcinoma tumor implants; format: in vivo, female C3H mice; conditions: for Lung Metastases: animals with metastases/animals
Experimental: Fragments of MA-16C mammary adenocarcinoma tumors were implanted subcutaneously into female C3H mice (8-11 animals per group). The animals were treated with vehicle alone, IGFBP-3 (4 mg/kg/day for 21 days by subcutaneous injection), doxorubicin (2 mg/kg on days 1 and 8 by intravenous injection), or IGFBP-3 plus doxorubicin. A separate study was performed where the animals were treated with vehicle alone, 5-fluorouracil (10 mg/kg on days 1-5 by intraperitoneal injection), or IGFBP-3 plus 5-fluorouracil. Tumor size was measured at day 18, and the mice were sacrificed at day 21, and the implanted tumors were removed for determination of caspase-3 activity (a marker of apoptosis-only performed for DOX groups).

[11] = system: HEK 293 cells; assay: IGF-independence of apoptosis stimulation, caspase-3; format: cell-based, human
Experimental: HEK 293 cells were cultured under stressed conditions (low serum or in the presence of paclitaxel) with and without IGFBP-3 (50 ng/ml) or MBD2 (50 ng/ml). Apoptosis was assayed using the caspase-3 assay as described in Example 1.

[12] = system: bax-alpha expression in HEK 293 cells; assay: Bax-alpha and bcl-2 mRNA expression; format: cell-based, human; conditions: paclitaxel 0.3 ng/ml, 50 ng/ml; FIG. 14A
Experimental: HEK 293 cells were cultured as described in Example 1, with the addition paclitaxel (0.3 ng/ml) and either IGFBP-3 or MBD2 at 50 ng/ml. Bax-alpha and bcl-2 mRNA and caspase 3 activity were assayed.

[13] = Solubility / concentration in phosphate buffered saline; format: physicochemical; conditions: PBS
From the text: Formulation: The central domain of IGFBP-3 is exquisitely sensitive to proteolysis. Due to the limited, solubility of IGFBP-3, its low stability and pronounced tendency to aggregate, the development of suitable formulations and convenient routes of delivery for intact IGFBP-3 is challenging.

In the case of “IGFBP-3: full-length, 264 aa, IGFBP-3 (insulin-like growth factor binding protein-3)”, the “pro-apoptotic activity” value [1] was “has pro-apoptotic activity”, the “binding to IMAC resins” value ([2]; Ni^++ and Zn^++ IMAC, SDS-PAGE) was “bound both IMAC resins effectively” and the “imidazole concentration that elutes from the resin” value ([2]; immobilized nickel and zinc) was 60 mM. For the same substance, the “% IGFBP-3 bound” value ([3]; Ca^++) was 0.0%, the “% IGFBP-3 bound” value ([3]; Co^++) was 95.1% and the “% IGFBP-3 bound” value ([3]; Fe^2+) was 46.6%. For the same substance, the “% IGFBP-3 bound” value ([3]; Fe^3+) was 55.1%, the “% IGFBP-3 bound” value ([3]; Mg^++) was 38.8% and the “% IGFBP-3 bound” value ([3]; Mn^++) was 20.1%. The “% IGFBP-3 bound” value ([3]; Ni^++) was 97.6%, the “% IGFBP-3 bound” value ([3]; Zn^++) was 59.5% and the “% IGFBP-3 bound” value [4] was 0.0%. For the same substance, the “co-apoptotic activity after anti-beta-1-integrin antibody pretreatment” value [5] was “greatly inhibits the co-apoptotic activity”, the “co-apoptotic activity” value [6] was “failed to demonstrate any co-apoptotic activity” and the “Apoptotic Activity” value [7] was 585 arbitrary caspase-3 units. The Metal-binding [8] was 93 percentage, the “co-apoptotic activity with Fibrinogen” value ([9]; Fibrinogen 200 ng/ml) was 1.1 arbitrary caspase-3 units and the “co-apoptotic activity with Fibronectin” value ([9]; Fibronectin 200 ng/ml) was 3.5 arbitrary caspase-3 units. For the same substance, the “co-apoptotic activity, plasma protein none” value ([9]; no plasma protein) was 100.0 arbitrary caspase-3 units, the “Tumor Weight” value ([10]; 5FU study, 5-fluorouracil 10 mg/kg ip days 1-5, IGFBP-3 4 mg/kg/day sc) was 3147 + 952 mg and the “Lung Metastases” value ([10]; 5FU study) was 1/7. For the same substance, the “Tumor Weight” value ([10]; DOX study, IGFBP-3 4 mg/kg/day sc 21 days, doxorubicin 2 mg/kg iv days 1 and 8) was 2632 + 554 mg, the “Lung Metastases” value ([10]; DOX study) was 1/7 and the Caspase-3 ([10]; DOX study, tumors removed at day 21) was 3.79 ± 3.25. For the same substance, the “IGF dependence of pro-apoptotic activity” value ([11]; 0.3 ng/ml paclitaxel, alone or with Y60L-IGF-I, FIG. 11C) was “independent of the presence of IGF”, the “pro-apoptotic activity under stressed conditions” value ([11]; low serum or paclitaxel, 50 ng/ml, FIGS. 11A, 11B) was “nearly identical” and the “bax-alpha expression” value [12] was “stimulates bax-alpha expression”. The “maximum solubility in phosphate buffered saline” value [13] was 7000 µg/mL.
